Source: patent US6479493B1, “Methods for treatment of type I diabetes” (Cell Pathways, Inc., priority 2001, dated 2002)
Where a name gives a salt, the structure may show the parent alone.

Assays:
rats [1] = assay: 91-day long-term safety assessment study in rats; type: in vivo, rat
Text: These changes were not associated with any gross clinical abnormality.

dogs [2] = assay: acute / seven-dose toxicity in dogs; conditions: dog, in vivo
Method: Therefore, these dogs were subsequently administered seven consecutive doses of 1000 mg/kg/day.

dogs [3] = assay: 91-day oral study in dogs; type: in vivo, dog
rats [4] = assay: 28-day study in rats; type: in vivo, rat
Method: A 28-day study in rats was also carried out at 0, 50, 500 and 2000 mg/kg/day.

human patients = assay: single, escalating dose human clinical safety trial; type: in vivo; conditions: humans, oral, 50, 100, 200 and 400 mg BID
Text: One skilled in the art should recognize that any of the side effects observed in these safety studies occurred at very high doses, in excess of recommended human doses and are extremely minimal compared to what one would expect at similar doses of other proposed therapies.

PDE4 = assay: PDE inhibition, similar protocols; type: biochemical
PDE 5 = PDE 5 (Homo sapiens, UniProt O76074); assay: competitive binding (with cGMP) to PDE5
U937 cells = assay: apoptosis induction of U937 cells, active caspase 3 indirect immunofluorescence; type: cell-based; conditions: 1 μM, 24 hours
Method: U937 cells (from ATCC Rockville, Md.) were grown in RPMI media supplemented with 5% FCS, glutamine, antibiotic/antimycotic and sodium pyruvate. Total RNA was isolated from two U937 cultures, one treated with 5 nM TPA for 48 hours and one grown in normal media as listed above, using the Rouche High Pure RNA Isolation Kit (cat #1 828 665) as per manufacturers protocol. cDNA was then synthesized from the total RNA using GibcoBRL SuperscriptII (Cat #18064-022) reverse transcriptase as per manufacturers protocol. The resulting cDNA was used as a template for RT-PCR reactions using primer sets specific for PDE2 (forward: […], reverse: […]) or PDE5 (forward: […], reverse: […]). mRNA for PDE2 and 5 were both present in the untreated U937 cells. Upon treatment with TPA, the relative amounts of PDE2 mRNA increased 5 fold. Therefore, U937 cells treated with TPA and driven to differentiate into an activated macrophage like state have elevated levels of PDE2 mRNA (see FIG. 1).
The presence of PDE2 and PDE5 protein within U937 cells was confirmed by indirect immunofluorescence (IIF). U937 cells were cultured as above. Two U937 cultures, one grown in the presence of 5 nM TPA for 48 hours and one grown in normal media were processed. All cultures were collected by centrifugation (Shandon Cytospin, 2 minutes @600 rpm) onto poly-L lysine-coated slides and immediately fixed in fresh 3% paraformaldehyde buffered in PBS for 10 minutes. Adherent cultures were grown on coverslips and fixed as above. Cells were permeablized in 0.2% Triton-100 for 2 minutes. Slides were blocked with blocking buffer (5% goat serum, 5% glycerol, 1% gelatin from cold water fish skin and 0.04% NaN3 in PBS) for 1 hour at room temperature.
Slides were then incubated for 1 hour at 37° C. in a humid chamber with antibodies specific for PDE2 (generated in a sheep against the peptide […]) or PDE5 (generated in sheep against the peptide […]). […]
The level of apoptosis in U937 cells was quantified by scoring 500 consecutive cells for the presence of active caspase 3. […]

[5] = test system: TNF-α secreted by TPA-induced U937 cells; assay: TNF-α immunoassay on media of TPA-treated U937 cells; type: cell-based; conditions: cell culture media (FIG. 12)
Method: One function of macrophages is to modulate the activity of other inflammatory cells through various cytokine molecules.
TNF-α levels in the cell culture media were determined by using the TNF-α Immunoassay from R&D Systems (Cat. #DTA50) according to the manufacturer's protocol.

rats [6] = assay: seven-day dose-range finding study in rats; type: in vivo, rat; conditions: 7 days
[7] = 91 days, highest dose group (300 mg/kg/day)
[8] = 28 days, 50, 500 and 2000 mg/kg/day

CC1=C(CC(=O)NCc2ccccc2)c2cc(F)ccc2/C1=C\c1ccncc1 [Example 38, (Z)-5-Fluoro-2-methyl-(4-pyridylidene)-3-(N-benzyl)indenylacetamide Hydrochloride]
clinical biochemistry and hematology (rats [1]; 91 days): no changes in clinical biochemistry and hematology were evident
microscopic finding, follicular cells (rats [1]; 91 days, 500 mg/kg/day): follicular cell hypertrophy
microscopic finding, kidneys (rats [1]; 91 days, 200 and 500 mg/kg/day): increase in accumulation of hyalin droplets in the kidneys
microscopic finding, liver (rats [1]; 91 days, 200 and 500 mg/kg/day): slight hepatocellular hypertrophy
liver and thyroid/parathyroid weights (rats [1]; 91 days, males and females at 200 and 500 mg/kg/day): dose-related trend to increased liver and thyroid/parathyroid weights
toxicological effects overall (rats [1]; oral, 91 days, 50, 200 and 500 mg/kg/day): did not produce any major toxicological effects
signs of toxicity (dogs [2]; 1000 mg/kg): no signs of toxicity
signs of drug-related effects (dogs [2]; 1000 mg/kg/day): At no time in either dosing phase were any obvious signs of drug-related effects observed
feces observation (dogs [3]; 91 days, 150 and 300 mg/kg/day): Orange discoloration of the feces
microscopic alterations (liver) (dogs [3]; 91 days, highest dose group): no microscopic alterations
body weights (dogs [3]; [7]): Slightly lowered body weights
liver weights (dogs [3]; [7]): increased liver weights
route of elimination (suggested by feces colour) (dogs [3]; oral, 91 days): most of Compound 38 was being eliminated via the feces
toxicological effects overall (dogs [3]; oral, 91 days, 50, 150 and 300 mg/kg/day): no toxicological effects
macroscopic tissue changes at necropsy (rats [4]; 28 days): No macroscopic tissue changes
liver weights (rats [4]; 28 days, 2000 mg/kg/day): statistically significant increase in liver weights
thyroid weights (rats [4]; 28 days, 2000 mg/kg/day): statistically significant increases in thyroid weights
body weight changes, ophthalmoscopic examinations, hematological and blood chemistry values, urinalysis (rats [4]; [8]): unremarkable
clinical observations (rats [4]; [8]): no abnormal clinical observations
histopathological evaluation of tissues (rats [4]; 28 days, generally a small number of animals at 2000 mg/kg/day): traces of follicular cell hypertrophy, increased numbers of mitotic figures (suggestive of possible cell proliferation) in the thyroid gland and mild centrilobular hypertrophy in the liver
liver and thyroid weight increases at the lower doses (rats [4]; 28 days, lower doses (50, 500 mg/kg/day)): not statistically significant
side effects (human patients): no significant side effects at any dose
IC50 (PDE4): 6 µM
competitive (with cGMP) binding to PDE 5 (PDE 5): does competitively (with cGMP) bind to PDE 5
apoptosis by active caspase 3 image (FIG. 8) (U937 cells): undergoing apoptosis as reflected by the presence of active caspase 3
level of TNF-α secreted [5]: significantly reduced
signs of toxicity (rats [6]; 50 mg/kg/day): no observable signs of toxicity
treatment-related effects (rats [6]; 500 mg/kg/day): limited to an increase in absolute and relative liver weights in female rats
treatment-related effects (rats [6]; 2000 mg/kg/day): labored breathing and/or abnormal respiratory sounds, decreased weights gains and food consumption in male rats, and increased liver weights in female rats
hematology, blood chemistry, microscopic pathology (rats [6]; any dose level (50, 500, 2000 mg/kg/day)): No hematological or blood chemistry changes nor any microscopic pathology changes
